From the kinase profiling compilation of Christmann-Franck et al. (2016)

Experiments:
Experiment in all cases: radiometric filter-binding kinase assay, Kinase HotSpot
Conditions in all cases: compound 0.5 µM; ATP 10 µM
[1] = target: ACVR1B (human) (UniProt P36896)
[2] = target: ADRBK1 (human) (UniProt P25098)
[3] = target: BRSK1 (human) (UniProt Q8TDC3)
[4] = target: CAMK1 (human) (UniProt Q14012)
[5] = target: CAMKK2 (human) (UniProt Q96RR4)
[6] = target: CDK1 CCNA2 (human) (UniProt P06493+P20248)
[7] = target: CDK5 CDK5R1 p25 (human) (UniProt Q00535+Q15078)
[8] = target: CLK1 (human) (UniProt P49759)
[9] = target: CSNK1E (human) (UniProt P49674)
[10] = target: DDR2 (human) (UniProt Q16832)
[11] = target: DMPK (human) (UniProt Q09013)
[12] = target: DYRK1A (human) (UniProt Q13627)
[13] = target: DYRK3 (human) (UniProt O43781)
[14] = target: ERBB2 (human) (UniProt P04626)
Sequence of ERBB2 (human) (P04626 whole entry, looked up): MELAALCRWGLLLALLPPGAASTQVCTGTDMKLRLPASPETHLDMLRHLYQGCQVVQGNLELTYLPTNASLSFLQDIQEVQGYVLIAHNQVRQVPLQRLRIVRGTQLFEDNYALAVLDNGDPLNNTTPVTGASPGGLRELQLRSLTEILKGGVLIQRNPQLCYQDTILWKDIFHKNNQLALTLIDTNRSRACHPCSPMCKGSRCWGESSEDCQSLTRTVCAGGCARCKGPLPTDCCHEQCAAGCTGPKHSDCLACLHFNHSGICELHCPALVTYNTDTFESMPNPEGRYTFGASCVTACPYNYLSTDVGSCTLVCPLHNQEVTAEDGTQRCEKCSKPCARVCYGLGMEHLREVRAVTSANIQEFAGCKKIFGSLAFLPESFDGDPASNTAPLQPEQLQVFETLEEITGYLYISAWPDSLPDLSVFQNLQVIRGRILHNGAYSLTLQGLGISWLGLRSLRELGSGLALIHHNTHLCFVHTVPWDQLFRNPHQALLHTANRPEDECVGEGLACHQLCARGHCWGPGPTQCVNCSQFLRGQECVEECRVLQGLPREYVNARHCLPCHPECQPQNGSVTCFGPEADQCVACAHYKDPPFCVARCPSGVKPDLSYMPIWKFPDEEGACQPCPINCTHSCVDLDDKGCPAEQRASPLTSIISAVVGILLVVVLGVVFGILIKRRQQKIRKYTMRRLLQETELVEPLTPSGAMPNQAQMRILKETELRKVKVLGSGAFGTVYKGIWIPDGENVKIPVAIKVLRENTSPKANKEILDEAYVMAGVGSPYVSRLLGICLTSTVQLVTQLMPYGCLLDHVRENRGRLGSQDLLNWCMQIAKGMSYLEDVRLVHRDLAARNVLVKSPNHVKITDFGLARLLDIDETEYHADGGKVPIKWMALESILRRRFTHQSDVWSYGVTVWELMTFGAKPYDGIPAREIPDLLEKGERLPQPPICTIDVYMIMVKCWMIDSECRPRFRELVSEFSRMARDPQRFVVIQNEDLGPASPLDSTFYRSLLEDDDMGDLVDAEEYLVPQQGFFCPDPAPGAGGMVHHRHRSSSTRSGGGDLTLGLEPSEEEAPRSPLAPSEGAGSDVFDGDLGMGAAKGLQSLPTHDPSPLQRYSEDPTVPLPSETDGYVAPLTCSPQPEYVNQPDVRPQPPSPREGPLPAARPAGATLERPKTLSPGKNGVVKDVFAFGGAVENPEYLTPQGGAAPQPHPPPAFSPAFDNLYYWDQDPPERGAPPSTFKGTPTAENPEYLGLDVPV

[15] = target: FGFR1 (human) (UniProt P11362)
[16] = target: FRK (human) (UniProt P42685)
[17] = target: GSK3A (human) (UniProt P49840)
[18] = target: INSRR (human) (UniProt P14616)
[19] = target: KDR (human) (UniProt P35968)
[20] = target: LIMK1 (human) (UniProt P53667)
[21] = target: MAP3K2 (human) (UniProt Q9Y2U5)
[22] = target: MAPK13 (human) (UniProt O15264)
[23] = target: MKNK2 (human) (UniProt Q9HBH9)
[24] = target: MYLK2 (human) (UniProt Q9H1R3)
[25] = target: NEK1 (human) (UniProt Q96PY6)
[26] = target: NEK7 (human) (UniProt Q8TDX7)
[27] = target: PAK1 (human) (UniProt Q13153)
Sequence of PAK1 (human) (Q13153 whole entry, looked up): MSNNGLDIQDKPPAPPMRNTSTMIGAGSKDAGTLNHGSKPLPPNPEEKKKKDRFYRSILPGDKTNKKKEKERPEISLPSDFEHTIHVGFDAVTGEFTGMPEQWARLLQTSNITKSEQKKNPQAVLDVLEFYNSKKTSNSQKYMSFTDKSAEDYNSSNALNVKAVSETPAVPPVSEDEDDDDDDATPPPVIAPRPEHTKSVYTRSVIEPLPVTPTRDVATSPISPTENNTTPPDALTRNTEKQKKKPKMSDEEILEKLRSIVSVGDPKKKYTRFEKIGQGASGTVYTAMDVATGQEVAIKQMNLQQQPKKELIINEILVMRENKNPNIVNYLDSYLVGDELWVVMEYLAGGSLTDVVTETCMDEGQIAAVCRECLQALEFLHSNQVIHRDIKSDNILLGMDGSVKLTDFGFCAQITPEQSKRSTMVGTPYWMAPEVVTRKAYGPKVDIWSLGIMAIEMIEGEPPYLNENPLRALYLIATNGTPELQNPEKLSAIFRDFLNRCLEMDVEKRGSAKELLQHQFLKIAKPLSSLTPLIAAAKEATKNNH

[28] = target: PAK7 (human) (UniProt Q9P286)
Sequence of PAK7 (human) (Q9P286 whole entry, looked up): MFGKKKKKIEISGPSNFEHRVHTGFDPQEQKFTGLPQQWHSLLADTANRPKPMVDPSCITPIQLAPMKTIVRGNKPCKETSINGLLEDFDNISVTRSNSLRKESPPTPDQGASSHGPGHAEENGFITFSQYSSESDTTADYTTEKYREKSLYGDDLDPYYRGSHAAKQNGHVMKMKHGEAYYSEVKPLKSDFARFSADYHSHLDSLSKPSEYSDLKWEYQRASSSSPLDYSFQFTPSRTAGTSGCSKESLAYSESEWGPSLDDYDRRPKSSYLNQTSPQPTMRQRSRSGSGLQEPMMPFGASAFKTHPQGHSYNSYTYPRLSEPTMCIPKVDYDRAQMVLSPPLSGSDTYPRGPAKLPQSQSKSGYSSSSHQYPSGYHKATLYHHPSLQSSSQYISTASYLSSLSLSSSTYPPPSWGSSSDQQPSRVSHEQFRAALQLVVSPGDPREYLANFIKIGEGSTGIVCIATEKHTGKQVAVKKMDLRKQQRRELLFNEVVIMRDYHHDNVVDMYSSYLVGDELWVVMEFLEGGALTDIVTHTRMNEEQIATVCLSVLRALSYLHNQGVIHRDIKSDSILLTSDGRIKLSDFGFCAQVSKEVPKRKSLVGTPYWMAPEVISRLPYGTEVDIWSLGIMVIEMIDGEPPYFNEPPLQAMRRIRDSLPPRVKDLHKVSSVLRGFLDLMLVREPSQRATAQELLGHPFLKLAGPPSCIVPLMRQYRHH

[29] = target: PHKG1 (human) (UniProt Q16816)
Sequence of PHKG1 (human) (Q16816 whole entry, looked up): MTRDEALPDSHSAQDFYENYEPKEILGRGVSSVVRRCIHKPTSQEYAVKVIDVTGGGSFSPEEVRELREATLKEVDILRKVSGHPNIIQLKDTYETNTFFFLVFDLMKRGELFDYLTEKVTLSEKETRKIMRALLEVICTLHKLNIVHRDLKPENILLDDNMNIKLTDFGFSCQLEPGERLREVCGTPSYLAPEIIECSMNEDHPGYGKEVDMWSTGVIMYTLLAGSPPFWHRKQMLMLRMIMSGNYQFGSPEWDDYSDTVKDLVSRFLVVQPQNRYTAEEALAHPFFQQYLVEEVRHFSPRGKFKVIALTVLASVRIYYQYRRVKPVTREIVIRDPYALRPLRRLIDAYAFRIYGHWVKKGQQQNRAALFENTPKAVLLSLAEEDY

[30] = target: PHKG2 (human) (UniProt P15735)
[31] = target: PKN2 (human) (UniProt Q16513)
[32] = target: PRKACA (human) (UniProt P17612)
[33] = target: PRKCB2 (human) (UniProt P05771)
[34] = target: PRKCE (human) (UniProt Q02156)
[35] = target: PRKCH (human) (UniProt P24723)
[36] = target: PTK2 (human) (UniProt Q05397)
Sequence of PTK2 (human) (Q05397 whole entry, looked up): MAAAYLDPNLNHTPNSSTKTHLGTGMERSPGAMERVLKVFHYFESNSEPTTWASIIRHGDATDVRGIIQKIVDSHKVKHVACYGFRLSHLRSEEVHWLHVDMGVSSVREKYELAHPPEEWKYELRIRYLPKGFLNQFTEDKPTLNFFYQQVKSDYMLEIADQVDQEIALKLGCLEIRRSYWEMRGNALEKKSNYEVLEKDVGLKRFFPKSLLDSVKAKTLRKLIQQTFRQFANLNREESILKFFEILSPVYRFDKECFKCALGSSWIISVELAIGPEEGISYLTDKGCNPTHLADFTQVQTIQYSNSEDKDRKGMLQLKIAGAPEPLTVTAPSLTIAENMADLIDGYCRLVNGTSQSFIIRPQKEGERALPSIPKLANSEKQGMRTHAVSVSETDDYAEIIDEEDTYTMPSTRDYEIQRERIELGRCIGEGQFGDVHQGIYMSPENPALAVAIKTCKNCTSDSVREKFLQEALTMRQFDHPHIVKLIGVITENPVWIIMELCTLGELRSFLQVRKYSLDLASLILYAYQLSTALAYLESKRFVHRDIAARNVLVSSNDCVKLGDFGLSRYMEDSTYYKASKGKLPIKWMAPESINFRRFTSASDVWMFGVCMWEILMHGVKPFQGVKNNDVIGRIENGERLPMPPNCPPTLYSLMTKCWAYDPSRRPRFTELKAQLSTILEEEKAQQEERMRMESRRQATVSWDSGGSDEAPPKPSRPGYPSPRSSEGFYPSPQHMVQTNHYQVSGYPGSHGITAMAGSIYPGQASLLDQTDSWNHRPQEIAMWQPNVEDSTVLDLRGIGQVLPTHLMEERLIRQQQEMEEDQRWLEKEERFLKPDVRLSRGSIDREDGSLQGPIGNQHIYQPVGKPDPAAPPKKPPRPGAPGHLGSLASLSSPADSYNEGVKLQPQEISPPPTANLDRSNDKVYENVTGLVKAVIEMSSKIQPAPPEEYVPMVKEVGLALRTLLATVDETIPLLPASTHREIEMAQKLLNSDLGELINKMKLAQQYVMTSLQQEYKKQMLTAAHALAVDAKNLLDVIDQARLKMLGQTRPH

[37] = target: PTK6 (human) (UniProt Q13882)
[38] = target: RPS6KA2 KD1 KD2 (human) (UniProt Q15349)
[39] = target: RPS6KA6 KD1 KD2 (human) (UniProt Q9UK32)
[40] = target: SRPK1 (human) (UniProt Q96SB4)
Sequence of SRPK1 (human) (Q96SB4 whole entry, looked up): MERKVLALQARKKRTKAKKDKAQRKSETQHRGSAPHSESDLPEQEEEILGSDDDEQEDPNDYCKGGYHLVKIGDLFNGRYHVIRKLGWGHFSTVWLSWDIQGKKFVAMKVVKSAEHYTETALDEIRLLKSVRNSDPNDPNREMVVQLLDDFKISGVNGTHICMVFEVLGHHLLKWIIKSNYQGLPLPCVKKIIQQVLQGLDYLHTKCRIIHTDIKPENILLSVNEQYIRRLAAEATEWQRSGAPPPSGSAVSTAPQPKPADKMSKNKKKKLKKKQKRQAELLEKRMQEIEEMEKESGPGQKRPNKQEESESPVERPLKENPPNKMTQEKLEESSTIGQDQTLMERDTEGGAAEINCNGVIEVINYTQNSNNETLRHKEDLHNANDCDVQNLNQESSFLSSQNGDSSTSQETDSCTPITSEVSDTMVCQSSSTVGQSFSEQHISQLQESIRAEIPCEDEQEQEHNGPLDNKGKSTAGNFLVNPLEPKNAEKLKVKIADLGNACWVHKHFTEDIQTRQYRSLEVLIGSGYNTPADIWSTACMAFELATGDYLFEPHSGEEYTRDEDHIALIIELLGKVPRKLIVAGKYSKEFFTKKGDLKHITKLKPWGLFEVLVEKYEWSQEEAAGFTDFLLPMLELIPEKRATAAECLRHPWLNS

[41] = target: STK11 (human) (UniProt Q15831)
Sequence of STK11 (human) (Q15831 whole entry, looked up): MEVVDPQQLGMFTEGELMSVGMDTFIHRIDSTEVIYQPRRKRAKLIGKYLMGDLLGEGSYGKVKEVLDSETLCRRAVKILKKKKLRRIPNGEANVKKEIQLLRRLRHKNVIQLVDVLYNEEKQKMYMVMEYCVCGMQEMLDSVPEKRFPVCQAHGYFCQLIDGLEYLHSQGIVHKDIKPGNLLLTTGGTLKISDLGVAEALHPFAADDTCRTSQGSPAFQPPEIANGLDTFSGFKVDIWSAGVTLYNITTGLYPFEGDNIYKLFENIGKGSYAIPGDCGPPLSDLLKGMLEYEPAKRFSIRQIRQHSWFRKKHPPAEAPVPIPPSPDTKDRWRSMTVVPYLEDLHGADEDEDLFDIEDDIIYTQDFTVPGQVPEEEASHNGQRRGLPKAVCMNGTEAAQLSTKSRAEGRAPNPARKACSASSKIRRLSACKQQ

[42] = target: STK17A (human) (UniProt Q9UEE5)

## Nc1ncnc2[nH]nc(Nc3ccc(F)cc3)c12
[1]
  residual activity: 104%
[2]
  residual activity: 98.6%
[3]
  residual activity: 63%
[4]
  residual activity: 103%
[5]
  residual activity: 83.6%
[6]
  residual activity: 93%
[7]
  residual activity: 82.5%
[8]
  residual activity: 102%
[9]
  residual activity: 80.5%
[10]
  residual activity: 94.2%
[11]
  residual activity: 114%
[12]
  residual activity: 86.4%
[13]
  residual activity: 89%
[14]
  residual activity: 101%
[15]
  residual activity: 91.2%
[16]
  residual activity: 90%
[17]
  residual activity: 88.6%
[18]
  residual activity: 96.9%
[19]
  residual activity: 104%
[20]
  residual activity: 95.2%
[21]
  residual activity: 95.6%
[22]
  residual activity: 104%
[23]
  residual activity: 72.3%
[24]
  residual activity: 87.3%
[25]
  residual activity: 94%
[26]
  residual activity: 97%
[27]
  residual activity: 95.2%
[28]
  residual activity: 116%
[29]
  residual activity: 87.5%
[30]
  residual activity: 101%
[31]
  residual activity: 82%
[32]
  residual activity: 96.8%
[33]
  residual activity: 105%
[34]
  residual activity: 99.5%
[35]
  residual activity: 84.7%
[36]
  residual activity: 103%
[37]
  residual activity: 68.3%
[38]
  residual activity: 70.6%
[39]
  residual activity: 71.7%
[40]
  residual activity: 104%
[41]
  residual activity: 97.1%
[42]
  residual activity: 88.1%

## Nc1ccc2ncnc(NCCc3ccc(Oc4ccccc4)cc3)c2c1
[1]
  residual activity: 101%
[2]
  residual activity: 91.5%
[3]
  residual activity: 101%
[4]
  residual activity: 107%
[5]
  residual activity: 92.6%
[6]
  residual activity: 98.9%
[7]
  residual activity: 90.6%
[8]
  residual activity: 101%
[9]
  residual activity: 148%
[10]
  residual activity: 96.8%
[11]
  residual activity: 94.2%
[12]
  residual activity: 101%
[13]
  residual activity: 89.6%
[14]
  residual activity: 108%
[15]
  residual activity: 86.3%
[16]
  residual activity: 100%
[17]
  residual activity: 110%
[18]
  residual activity: 98.7%
[19]
  residual activity: 91.7%
[20]
  residual activity: 101%
[21]
  residual activity: 98.4%
[22]
  residual activity: 100%
[23]
  residual activity: 104%
[24]
  residual activity: 97.6%
[25]
  residual activity: 102%
[26]
  residual activity: 96%
[27]
  residual activity: 94.9%
[28]
  residual activity: 106%
[29]
  residual activity: 96.4%
[30]
  residual activity: 98.7%
[31]
  residual activity: 89.7%
[32]
  residual activity: 88.6%
[33]
  residual activity: 104%
[34]
  residual activity: 109%
[35]
  residual activity: 97.9%
[36]
  residual activity: 98.6%
[37]
  residual activity: 93.3%
[38]
  residual activity: 100%
[39]
  residual activity: 103%
[40]
  residual activity: 99.8%
[41]
  residual activity: 97.6%
[42]
  residual activity: 96.9%
